Results taken from patent US12729181B2, “Compounds, compositions, and methods for modulating calcium ion homeostasis” (The Regents of the University of California, priority 2020, dated 2026).

Columns and labels:
tre^tc318 mutant embryos = test: Compound rescue screen: restoration of persistent heartbeat in tremblor embryos; assay type: in vivo, Zebrafish; details: for Rescue at 10 uM (%): 10 uM from 30 hpf; for Rescue at 10 uM (%) / Rescue at 15 uM (%) / Rescue at 20 uM (%): cardiac function by visual inspection at 2 dpf, 10 embryos per well; for Rescue at 15 uM (%): 15 uM from 30 hpf; for Rescue at 20 uM (%): 20 uM from 30 hpf; for responders at 10 µM / responders at 15 µM / responders at 20 µM: Danio rerio, 48 h; for responders at 10 µM: read-out: Rescue at 10 uM (%); for responders at 15 µM: read-out: Rescue at 15 uM (%); for responders at 20 µM: read-out: Rescue at 20 uM (%)
Description: Zebrafish of the mutant line tremblor (tre^tc318) were maintained and bred as described previously in the literature. C. f. Langenbacher A D, et al., PNAS, 2005, 102(49), 17699-17704.
Exemplary compounds were screened for their ability to partially or completely restore persistent heartbeat in tre^tc318 embryos. 10 tre^tc318 mutant embryos were placed in each well of a 24-well plate and raised in the presence of individual compounds at various concentrations (5, 10, 15 and 20 μM) from 30 hpf. Cardiac function was analyzed by visual inspection at 2 dpf. The hearts of tre^tc318 embryos manifest a chaotic movement resembling cardiac fibrillation with sporadic contractions. Compounds that elicited persistent coordinated cardiac contractions were validated by rescreening at least once on another 10 tre^tc318 mutant embryos.

cardiomyocytes = test: Ca sparks, Ca waves and contractions in cardiomyocytes; assay type: cell-based
VDAC2 = test: Binding of efsevin to VDAC2
[1] = Metabolic stability in vivo

Structure (SMILES) | responders at 10 µM (tre^tc318 mutant embryos) | responders at 15 µM (tre^tc318 mutant embryos) | further results
CCOC(=O)C1=CCN(S(=O)(=O)c2ccc(C)cc2)C1c1ccc(C)cc1 (centres unmarked) [FS057] |  |  | Rescue at 10 uM (%) (tre^tc318 mutant embryos): 60%; Rescue at 15 uM (%) (tre^tc318 mutant embryos): 70%; Rescue at 20 uM (%) (tre^tc318 mutant embryos): 60%
CCOC(=O)C1=CCN(S(=O)(=O)c2ccccc2[N+](=O)[O-])C1c1ccc(C)cc1 (centres unmarked) [FS075] |  |  | Rescue at 10 uM (%) (tre^tc318 mutant embryos): 0%
CCOC(=O)C1=CCN(S(=O)(=O)c2ccccc2Br)C1c1ccc(C)cc1 (centres unmarked) [FS048] | 0% |  | 
CCOC(=O)C1=CCN(S(=O)(=O)c2ccc(Br)cc2)C1c1cccc(Cl)c1 (centres unmarked) [FS093] | 0% |  | 
CCOC(=O)C1=CCN(S(=O)(=O)c2ccccc2F)C1c1cccc(C)c1 (centres unmarked) [FS038] | 25% |  | 
CCOC(=O)C1=CCN(S(=O)(=O)c2ccccc2F)C1c1cccc(F)c1 (centres unmarked) [FS037] | 0% |  | 
CCOC(=O)C1=CCN(S(=O)(=O)c2cccc(F)c2)C1c1ccc(F)cc1 (centres unmarked) [FS135] |  | 50% | 
CCOC(=O)C1=CCN(S(=O)(=O)c2ccccc2Cl)C1c1cccc(C)c1 (centres unmarked) [FS028] | 0% |  | 
CCOC(=O)C1=CCN(S(=O)(=O)c2ccc(C)cc2)C1c1ccc(CC)cc1 (centres unmarked) [FS058] | 58% | 80% | responders at 20 µM (tre^tc318 mutant embryos): 45%
CCOC(=O)C1=CCN(S(=O)(=O)c2ccc(Br)cc2)C1c1ccc(F)cc1 (centres unmarked) [FS101] | 20% |  | 
CCOC(=O)C1=CCN(S(=O)(=O)c2cccc(Cl)c2)C1c1ccc(Cl)c(Cl)c1 (centres unmarked) [FS118] |  | 10% | 
CCOC(=O)C1=CCN(S(=O)(=O)c2ccccc2Br)C1c1cccc(Cl)c1 (centres unmarked) [FS030] | 0% |  | 
CCOC(=O)C1=CCN(S(=O)(=O)c2ccc(C)cc2)C1c1ccc(C#N)cc1 (centres unmarked) [FS060] | 80% | 60% | responders at 20 µM (tre^tc318 mutant embryos): 0%
CCOC(=O)C1=CCN(S(=O)(=O)c2ccccc2Cl)C1c1ccc(Cl)cc1 (centres unmarked) [FS041] | 44% | 30% | responders at 20 µM (tre^tc318 mutant embryos): 20%
CCOC(=O)C1=CCN(S(=O)(=O)c2ccccc2Cl)C1c1cccc(Cl)c1 (centres unmarked) [FS024] | 0% |  | 
CCOC(=O)C1=CCN(S(=O)(=O)c2ccccc2C(=O)OC)C1c1ccc(Cl)cc1 (centres unmarked) [FS073] |  |  | Rescue at 10 uM (%) (tre^tc318 mutant embryos): 40%
CCOC(=O)C1=CCN(S(=O)(=O)c2ccccc2Cl)C1c1cccc(Br)c1 (centres unmarked) [FS026] | 0% |  | 
CCOC(=O)C1=CCN(S(=O)(=O)c2ccc(Br)cc2)C1c1ccccc1 (centres unmarked) [FS104] |  |  | Rescue at 10 uM (%) (tre^tc318 mutant embryos): 60%; Rescue at 15 uM (%) (tre^tc318 mutant embryos): 50%; Rescue at 20 uM (%) (tre^tc318 mutant embryos): 60%
CCOC(=O)C1=CCN(S(=O)(=O)c2ccc(C)cc2)C1c1ccccc1 (centres unmarked) [FS001, efsevin, reference compound] | 58% | 80% | effect on Ca overload-induced Ca waves and contractions (cardiomyocytes): inhibits Ca+overload-induced erratic Ca^+ waves and irregular contractions; responders at 20 µM (tre^tc318 mutant embryos): 45%; activity to restore coordinated contractions in tremblor (tre^tc318 mutant embryos; chemical suppressor screen on zebrafish tremblor embryos): potent activity to restore coordinated contractions in tremblor; binding to VDAC2 (VDAC2): bind to VDAC2; metabolic stability in vivo [1]: poor metabolic stability in vivo
CCOC(=O)C1=CCN(S(=O)(=O)c2cccc(Cl)c2)C1c1cccc(Br)c1 (centres unmarked) [FS120] |  | 56% | 

Structure (SMILES) | responders at 10 µM (tre^tc318 mutant embryos) | responders at 15 µM (tre^tc318 mutant embryos) | further results
CCOC(=O)C1=CCN(S(=O)(=O)c2ccccc2F)C1c1ccc(Cl)c(Cl)c1 (centres unmarked) [FS034] | 65% | 30% | responders at 20 µM (tre^tc318 mutant embryos): 20%
CCOC(=O)C1=CCN(S(=O)(=O)c2ccccc2F)C1c1cccc(Br)c1 (centres unmarked) [FS036] | 0% |  | 
CCOC(=O)C1=CCN(S(=O)(=O)c2ccccc2C)C1c1cccc(F)c1 (centres unmarked) [FS022] | 0% |  | 
CCOC(=O)C1=CCN(S(=O)(=O)c2ccccc2)C1c1ccc(Cl)cc1 (centres unmarked) [FS072] |  |  | Rescue at 10 uM (%) (tre^tc318 mutant embryos): 60%; Rescue at 15 uM (%) (tre^tc318 mutant embryos): 70%; Rescue at 20 uM (%) (tre^tc318 mutant embryos): 40%
CCOC(=O)C1=CCN(S(=O)(=O)c2ccc(Cl)cc2)C1c1ccc(C)cc1 (centres unmarked) [FS086] |  |  | Rescue at 10 uM (%) (tre^tc318 mutant embryos): 11%
CCOC(=O)C1=CCN(S(=O)(=O)c2ccccc2Cl)C1c1ccc(C)cc1 (centres unmarked) [FS044] | 0% |  | 
CCOC(=O)C1=CCN(S(=O)(=O)c2ccccc2Br)C1c1ccc(F)cc1 (centres unmarked) [FS047] | 20% |  | 
CCOC(=O)C1=CCN(S(=O)(=O)c2ccc(Br)cc2)C1c1ccc(Br)cc1 (centres unmarked) [FS100] | 0% | 33% | 
CCOC(=O)C1=CCN(S(=O)(=O)c2ccc(F)cc2)C1c1ccc(Br)cc1 (centres unmarked) [FS124] |  | 90% | 
CCOC(=O)C1=CCN(S(=O)(=O)c2ccccc2C)C1c1cccc(C)c1 (centres unmarked) [FS025] | 0% |  | 
CCOC(=O)C1=CCN(S(=O)(=O)c2ccc(Cl)cc2)C1c1ccc(Cl)cc1 (centres unmarked) [FS085] |  |  | Rescue at 10 uM (%) (tre^tc318 mutant embryos): 89%; Rescue at 15 uM (%) (tre^tc318 mutant embryos): 80%; Rescue at 20 uM (%) (tre^tc318 mutant embryos): 80%
CCOC(=O)C1=CCN(S(=O)(=O)c2ccc(C)cc2)C1c1cccc2ccccc12 (centres unmarked) [FS068] |  |  | Rescue at 10 uM (%) (tre^tc318 mutant embryos): 0%; Rescue at 15 uM (%) (tre^tc318 mutant embryos): 0%; Rescue at 20 uM (%) (tre^tc318 mutant embryos): 0%
CCOC(=O)C1=CCN(S(=O)(=O)c2ccccc2C)C1c1ccc(Cl)c(Cl)c1 (centres unmarked) [FS019] | 30% | 40% | responders at 20 µM (tre^tc318 mutant embryos): 30%
CCOC(=O)C1=CCN(S(=O)(=O)c2ccc([N+](=O)[O-])cc2)C1c1ccccc1 (centres unmarked) [FS142] |  |  | Rescue at 15 uM (%) (tre^tc318 mutant embryos): 56%
CCOC(=O)C1=CCN(S(=O)(=O)c2ccccc2F)C1c1ccccc1 (centres unmarked) [FS056] |  |  | Rescue at 10 uM (%) (tre^tc318 mutant embryos): 20%; Rescue at 15 uM (%) (tre^tc318 mutant embryos): 0%; Rescue at 20 uM (%) (tre^tc318 mutant embryos): 0%
CCOC(=O)C1=CCN(S(=O)(=O)c2ccc(F)cc2)C1c1cccc(Cl)c1 (centres unmarked) [FS114] |  | 22% | 
CCOC(=O)C1=CCN(S(=O)(=O)c2ccc(Cl)cc2)C1c1ccc(Cl)c(Cl)c1 (centres unmarked) [FS087] | 22% | 0% | responders at 20 µM (tre^tc318 mutant embryos): 0%
CCOC(=O)C1=CCN(S(=O)(=O)c2ccccc2Cl)C1c1ccc(Br)cc1 (centres unmarked) [FS042] | 0% |  | 
CCOC(=O)C1=CCN(S(=O)(=O)c2ccccc2Cl)C1c1cccc(F)c1 (centres unmarked) [FS027] | 0% |  | 
CCOC(=O)C1=CCN(S(=O)(=O)c2ccc(Br)cc2)C1c1cccc(Br)c1 (centres unmarked) [FS094] | 11% | 75% | responders at 20 µM (tre^tc318 mutant embryos): 25%

Structure (SMILES) | responders at 10 µM (tre^tc318 mutant embryos) | responders at 15 µM (tre^tc318 mutant embryos) | further results
CCOC(=O)C1=CCN(S(=O)(=O)c2ccc(C)cc2)C1c1cccc(Cl)c1 (centres unmarked) [FS064] |  |  | Rescue at 10 uM (%) (tre^tc318 mutant embryos): 20%
CCOC(=O)C1=CCN(S(=O)(=O)c2cccc(Br)c2)C1c1ccc(Cl)cc1 (centres unmarked) [FS136] |  | 29% | 
CCOC(=O)C1=CCN(S(=O)(=O)c2ccccc2C)C1c1ccccc1 (centres unmarked) [FS053] | 0% |  | 
CCOC(=O)C1=CCN(S(=O)(=O)c2ccc(Cl)cc2)C1c1ccc(F)cc1 (centres unmarked) [FS098] | 40% | 44% | responders at 20 µM (tre^tc318 mutant embryos): 89%
CCOC(=O)C1=CCN(S(=O)(=O)c2ccccc2F)C1c1cccc(Cl)c1 (centres unmarked) [FS035] | 0% |  | 
CCOC(=O)C1=CCN(S(=O)(=O)c2ccccc2Br)C1c1ccccc1 (centres unmarked) [FS055] | 0% |  | 
CCOC(=O)C1=CCN(S(=O)(=O)c2ccc(Cl)cc2)C1c1cccc(C)c1 (centres unmarked) [FS091] | 0% |  | 
CCOC(=O)C1=CCN(S(=O)(=O)c2ccccc2)C1c1ccccc1 (centres unmarked) [FS148] |  | 56% | 
CCOC(=O)C1=CCN(S(=O)(=O)c2ccc(Br)cc2)C1c1cccc(F)c1 (centres unmarked) [FS095] | 40% |  | 
CCOC(=O)C1=CCN(S(=O)(=O)c2cccc(Br)c2)C1c1ccc(F)cc1 (centres unmarked) [FS138] |  | 50% | 
CCOC(=O)C1=CCN(S(C)(=O)=O)C1c1ccc(C)cc1 (centres unmarked) [FS140] |  | 0% | 
CCOC(=O)C1=CCN(S(=O)(=O)c2ccccc2C)C1c1ccc(Cl)cc1 (centres unmarked) [FS017] | 25% | 60% | responders at 20 µM (tre^tc318 mutant embryos): 20%
CCOC(=O)C1=CCN(S(=O)(=O)c2ccc(C)cc2)C1c1cccc(Br)c1 (centres unmarked) [FS067] |  |  | Rescue at 10 uM (%) (tre^tc318 mutant embryos): 20%
CCOC(=O)C1=CCN(S(=O)(=O)c2ccccc2C(=O)OC)C1c1ccc(C)cc1 (centres unmarked) [FS076] | 40% | 60% | responders at 20 µM (tre^tc318 mutant embryos): 10%
CCOC(=O)C1=CCN(S(=O)(=O)c2cccc(F)c2)C1c1ccc(Br)cc1 (centres unmarked) [FS134] |  | 60% | 
CCOC(=O)C1=CCN(S(=O)(=O)c2ccccc2C)C1c1cccc(Cl)c1 (centres unmarked) [FS020] | 0% |  | 
CCOC(=O)C1=CCN(S(=O)(=O)c2ccccc2Br)C1c1ccc(Br)cc1 (centres unmarked) [FS046] | 60% | 10% | responders at 20 µM (tre^tc318 mutant embryos): 10%
CCOC(=O)C1=CCN(S(=O)(=O)c2ccccc2C)C1c1cccc(Br)c1 (centres unmarked) [FS021] | 10% |  | 
CCOC(=O)C1=CCN(S(=O)(=O)c2ccc(Br)cc2)C1c1cccc(C)c1 (centres unmarked) [FS096] | 22% |  | 
CCOC(=O)C1=CCN(S(=O)(=O)c2ccc(F)cc2)C1c1cccc(F)c1 (centres unmarked) [FS116] |  | 11% | 
